Results published in ChEMBL document CHEMBL1201862, “PubChem BioAssay data set” (2004).
The source made the active and inactive calls.

Assays:
[1] = biological target: T1, Replicative DNA helicase DnaB (Mycobacterium tuberculosis, UniProt P9WMR3); assay: DnaB intein splicing inhibitors, dose response, biochemical, cell-free fluorescence (AID 449749); format: functional
T1 sequence (P9WMR3 whole entry): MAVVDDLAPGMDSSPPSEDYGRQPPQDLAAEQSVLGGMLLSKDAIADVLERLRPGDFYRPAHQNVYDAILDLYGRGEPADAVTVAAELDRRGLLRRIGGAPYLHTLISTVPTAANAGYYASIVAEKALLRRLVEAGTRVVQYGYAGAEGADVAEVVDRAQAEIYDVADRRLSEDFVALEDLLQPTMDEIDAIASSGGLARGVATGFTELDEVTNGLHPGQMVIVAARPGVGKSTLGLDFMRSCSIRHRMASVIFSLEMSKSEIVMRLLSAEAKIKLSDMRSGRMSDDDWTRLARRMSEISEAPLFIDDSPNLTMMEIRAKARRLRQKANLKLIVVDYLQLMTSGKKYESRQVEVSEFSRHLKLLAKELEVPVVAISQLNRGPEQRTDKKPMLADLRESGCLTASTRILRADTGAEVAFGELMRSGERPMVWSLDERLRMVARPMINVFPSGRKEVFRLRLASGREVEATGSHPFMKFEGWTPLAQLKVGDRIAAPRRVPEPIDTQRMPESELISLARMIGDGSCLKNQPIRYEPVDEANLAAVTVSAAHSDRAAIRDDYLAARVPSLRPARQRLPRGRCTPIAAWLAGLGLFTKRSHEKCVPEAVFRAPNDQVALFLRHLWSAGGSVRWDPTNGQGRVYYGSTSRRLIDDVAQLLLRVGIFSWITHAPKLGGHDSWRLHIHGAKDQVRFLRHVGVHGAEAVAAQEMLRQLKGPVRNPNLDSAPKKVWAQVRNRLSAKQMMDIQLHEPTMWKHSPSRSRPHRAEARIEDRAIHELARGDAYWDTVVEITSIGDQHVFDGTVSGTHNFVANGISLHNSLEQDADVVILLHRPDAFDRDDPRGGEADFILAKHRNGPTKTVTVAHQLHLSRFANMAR

X-box-binding protein 1 = X-box-binding protein 1 (Homo sapiens, UniProt P17861); format: functional, Cricetulus griseus;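 also: confirmatory dose-response counter-screen serving a CHOP assay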
Sequence of X-box-binding protein 1 (P17861 whole entry): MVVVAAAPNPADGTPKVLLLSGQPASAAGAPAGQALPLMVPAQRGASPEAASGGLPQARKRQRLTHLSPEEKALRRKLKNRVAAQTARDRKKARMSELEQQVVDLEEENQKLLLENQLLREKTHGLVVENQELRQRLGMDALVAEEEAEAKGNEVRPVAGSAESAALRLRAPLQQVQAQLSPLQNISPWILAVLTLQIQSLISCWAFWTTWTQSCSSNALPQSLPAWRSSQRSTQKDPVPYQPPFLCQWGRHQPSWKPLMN

Protein RecA = biological target: T2, Protein RecA (Mycobacterium tuberculosis, UniProt P9WHJ3); assay: Fluorescence Cell-Free Homogeneous Dose Retest to Identify Inhibitors of RecA-Intein Splicing Activity. [Related pubchem assays (depositor defined):AID2097, AID2223, AID489010, AID492950]; format: functional
T2 sequence (P9WHJ3 whole entry): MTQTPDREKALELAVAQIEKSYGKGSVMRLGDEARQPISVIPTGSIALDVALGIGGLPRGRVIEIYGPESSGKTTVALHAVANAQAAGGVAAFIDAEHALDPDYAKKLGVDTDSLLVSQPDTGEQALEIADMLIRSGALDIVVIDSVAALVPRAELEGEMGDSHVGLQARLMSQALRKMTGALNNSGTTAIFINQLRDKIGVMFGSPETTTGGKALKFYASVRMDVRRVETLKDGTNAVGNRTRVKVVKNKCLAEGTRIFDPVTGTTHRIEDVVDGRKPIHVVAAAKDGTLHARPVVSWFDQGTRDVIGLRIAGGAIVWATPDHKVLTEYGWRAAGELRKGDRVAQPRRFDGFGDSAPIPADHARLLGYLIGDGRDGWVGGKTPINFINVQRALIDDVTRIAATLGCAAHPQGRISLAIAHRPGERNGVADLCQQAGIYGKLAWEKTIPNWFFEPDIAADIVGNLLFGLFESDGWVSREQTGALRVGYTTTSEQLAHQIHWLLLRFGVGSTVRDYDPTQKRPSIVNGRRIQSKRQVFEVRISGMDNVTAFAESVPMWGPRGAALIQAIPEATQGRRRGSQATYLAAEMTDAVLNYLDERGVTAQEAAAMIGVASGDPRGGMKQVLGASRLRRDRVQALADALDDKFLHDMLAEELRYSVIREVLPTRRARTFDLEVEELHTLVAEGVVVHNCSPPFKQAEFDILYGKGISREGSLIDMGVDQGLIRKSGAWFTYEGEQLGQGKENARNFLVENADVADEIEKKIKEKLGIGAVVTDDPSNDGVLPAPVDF

[2] = biological target: Intestinal-type alkaline phosphatase (Homo sapiens, UniProt P09923); assay: Dose Response confirmation of uHTS hits from a small molecule inhibitors of human intestinal alkaline phosphatase via a luminescent assay. [Related pubchem assays (depositor defined):AID2544, AID2574]; format: functional
Sequence of Intestinal-type alkaline phosphatase (P09923 whole entry): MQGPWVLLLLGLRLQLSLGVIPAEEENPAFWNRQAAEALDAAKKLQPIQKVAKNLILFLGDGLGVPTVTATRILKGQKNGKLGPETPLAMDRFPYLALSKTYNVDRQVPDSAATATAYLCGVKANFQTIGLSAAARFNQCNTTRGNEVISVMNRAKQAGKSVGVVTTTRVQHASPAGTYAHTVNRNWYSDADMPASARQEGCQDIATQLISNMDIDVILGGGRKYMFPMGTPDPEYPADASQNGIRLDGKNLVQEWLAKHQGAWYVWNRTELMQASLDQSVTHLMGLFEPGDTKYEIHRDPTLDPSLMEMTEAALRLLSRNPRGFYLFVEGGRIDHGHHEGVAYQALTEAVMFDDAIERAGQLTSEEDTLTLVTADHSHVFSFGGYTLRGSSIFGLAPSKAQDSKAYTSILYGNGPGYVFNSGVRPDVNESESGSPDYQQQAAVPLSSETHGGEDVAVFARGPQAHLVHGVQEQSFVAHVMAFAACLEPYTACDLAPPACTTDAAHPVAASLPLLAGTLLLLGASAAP

[3] = biological target: Heat shock protein HSP 90-alpha (Homo sapiens, UniProt P07900); format: functional, organism-based
[4] = biological target: T3, Small ubiquitin-related modifier 1 (Homo sapiens, UniProt P63165); assay: SUMO1 protein-protein binding blockers, potency – biochemical, FRET, dose response (AID 624383); format: functional; conditions: read-out: IC50_Mean
T3 sequence (P63165 whole entry): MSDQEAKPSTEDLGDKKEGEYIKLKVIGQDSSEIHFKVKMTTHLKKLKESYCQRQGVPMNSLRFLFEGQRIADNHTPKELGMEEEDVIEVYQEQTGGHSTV

[5] = viability of HCT116 lacking mutant beta-catenin – cell-based, human colon tumor, dose response (AID 1045); format: functional;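 also: HCT116 colon tumor cells with beta catenin knocked out; cells exposed to compound for 60 hours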
[6] = biological target: T3, Small ubiquitin-related modifier 1; assay: SUMO1 protein interaction blockers, potency – biochemical, fluorescence polarization, uHTS hits, dose response (AID 624382); format: functional; conditions: read-out: IC50_Mean
[7] = biological target: Eukaryotic translation initiation factor 4E (Mus musculus, UniProt P63073); assay: blockers of eIF4G binding by eIF4E – biochemical, TR-FRET, dose response (AID 855); format: functional;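 also: potency for disrupting eIF4E binding to eIF4GI seen as loss of FRET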
Sequence of Eukaryotic translation initiation factor 4E (P63073 whole entry): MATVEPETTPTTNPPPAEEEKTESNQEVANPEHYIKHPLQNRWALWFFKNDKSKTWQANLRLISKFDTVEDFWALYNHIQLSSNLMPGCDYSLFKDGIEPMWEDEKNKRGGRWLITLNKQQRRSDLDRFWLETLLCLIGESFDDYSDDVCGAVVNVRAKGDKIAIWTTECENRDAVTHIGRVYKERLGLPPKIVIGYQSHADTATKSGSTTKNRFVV

[8] = biological target: Induced myeloid leukemia cell differentiation protein Mcl-1 (Homo sapiens, UniProt Q07820); format: functional
Sequence of Induced myeloid leukemia cell differentiation protein Mcl-1 (Q07820 whole entry): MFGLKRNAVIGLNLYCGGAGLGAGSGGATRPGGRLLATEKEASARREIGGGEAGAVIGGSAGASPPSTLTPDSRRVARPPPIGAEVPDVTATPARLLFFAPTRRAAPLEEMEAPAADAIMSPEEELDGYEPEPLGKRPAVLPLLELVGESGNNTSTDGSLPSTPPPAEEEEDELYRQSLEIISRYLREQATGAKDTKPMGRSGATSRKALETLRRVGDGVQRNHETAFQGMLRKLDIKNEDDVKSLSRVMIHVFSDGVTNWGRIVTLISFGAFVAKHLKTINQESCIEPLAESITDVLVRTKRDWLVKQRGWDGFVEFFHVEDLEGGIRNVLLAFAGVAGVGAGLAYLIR

[9] = biological target: T4, DNA repair protein RAD52 homolog (Homo sapiens, UniProt P43351); format: functional, biochemical
T4 sequence (P43351 whole entry): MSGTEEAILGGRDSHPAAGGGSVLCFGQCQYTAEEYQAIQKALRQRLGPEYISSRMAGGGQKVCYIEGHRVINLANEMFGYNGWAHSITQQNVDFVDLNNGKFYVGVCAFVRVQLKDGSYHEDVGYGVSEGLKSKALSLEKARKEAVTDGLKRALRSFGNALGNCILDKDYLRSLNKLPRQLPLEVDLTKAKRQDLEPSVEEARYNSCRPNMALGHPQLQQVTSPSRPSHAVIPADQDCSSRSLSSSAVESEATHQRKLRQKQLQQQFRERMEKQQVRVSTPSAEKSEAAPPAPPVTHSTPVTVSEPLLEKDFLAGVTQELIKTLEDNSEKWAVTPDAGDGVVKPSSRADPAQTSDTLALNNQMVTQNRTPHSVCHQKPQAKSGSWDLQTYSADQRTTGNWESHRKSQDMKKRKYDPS

[10] = viability of PTEN-deleted HCT116 cells – cell-based, HCT116 PTEN knockout, dose response (AID 1047); format: functional;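 also: HCT116 colon tumor cells with PTEN knocked out; cells exposed to compound for 60 hours before readout; potency for loss of cell viability measured by luminescence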
[11] = biological target: Phosphoethanolamine/phosphocholine phosphatase (Homo sapiens, UniProt Q8TCT1); assay: SAR assay for compounds that inhibit PHOSPHO1. [Related pubchem assays (depositor defined):AID1545, AID1565, AID1574]
Sequence of Phosphoethanolamine/phosphocholine phosphatase (Q8TCT1 whole entry): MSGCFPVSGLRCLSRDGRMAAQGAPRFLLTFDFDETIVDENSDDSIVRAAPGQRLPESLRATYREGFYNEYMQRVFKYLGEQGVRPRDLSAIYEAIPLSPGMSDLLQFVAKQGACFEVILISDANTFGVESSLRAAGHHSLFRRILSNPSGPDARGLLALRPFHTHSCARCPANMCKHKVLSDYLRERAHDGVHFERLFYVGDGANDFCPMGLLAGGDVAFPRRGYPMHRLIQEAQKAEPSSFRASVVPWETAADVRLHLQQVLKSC

Phosphomannomutase 2 = biological target: T5, Phosphomannomutase 2 (Homo sapiens, UniProt O15305); assay: Counter screen SAR assay for PMM2 inhibitors via a fluorescence intensity assay. [Related pubchem assays (depositor defined):AID1545, AID1574]
T5 sequence (O15305 whole entry): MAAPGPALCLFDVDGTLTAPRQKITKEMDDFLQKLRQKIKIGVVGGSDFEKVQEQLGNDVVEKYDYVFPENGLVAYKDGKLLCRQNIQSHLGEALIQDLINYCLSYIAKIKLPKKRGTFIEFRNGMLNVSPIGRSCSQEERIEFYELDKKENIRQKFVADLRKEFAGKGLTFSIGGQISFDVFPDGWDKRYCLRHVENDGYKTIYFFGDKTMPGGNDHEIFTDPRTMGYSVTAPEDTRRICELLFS

[12] = biological target: T6, Mannose-6-phosphate isomerase (Homo sapiens, UniProt P34949); assay: phosphomannose isomerase inhibition – biochemical, fluorescence intensity, confirmation (AID 1535)
T6 sequence (P34949 whole entry): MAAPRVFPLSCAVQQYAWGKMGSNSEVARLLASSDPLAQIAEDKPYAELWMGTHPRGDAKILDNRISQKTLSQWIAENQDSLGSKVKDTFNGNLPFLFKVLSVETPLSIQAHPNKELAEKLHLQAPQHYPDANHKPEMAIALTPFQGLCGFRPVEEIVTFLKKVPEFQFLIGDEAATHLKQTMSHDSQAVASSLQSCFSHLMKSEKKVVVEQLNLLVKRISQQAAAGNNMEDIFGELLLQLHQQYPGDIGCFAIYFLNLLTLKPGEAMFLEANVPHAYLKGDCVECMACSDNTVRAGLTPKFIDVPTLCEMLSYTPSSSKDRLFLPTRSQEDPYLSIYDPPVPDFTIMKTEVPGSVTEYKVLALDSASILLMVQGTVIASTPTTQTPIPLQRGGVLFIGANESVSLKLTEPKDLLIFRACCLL

Streptococcus = assay: GAS UMAA2166 growth inhibition – luminescence, BacTiterGlo, counter-screen for streptokinase expression inhibitor project, dose response (AID 1915); format: functional, organism-based;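 also: potency for reduction of bacterial viability or growth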
[13] = biological target: T7, Polyadenylate-binding protein 1 (Homo sapiens, UniProt P11940); assay: MLLE binding blockers, Cy5 peptide tracer – biochemical, fluorescence polarization, Cy5-PAM2 peptide, secondary, miRNA deadenylation inhibitor project, dose response (AID 602260); format: functional; conditions: read-out: IC50_Mean
T7 sequence (P11940 whole entry): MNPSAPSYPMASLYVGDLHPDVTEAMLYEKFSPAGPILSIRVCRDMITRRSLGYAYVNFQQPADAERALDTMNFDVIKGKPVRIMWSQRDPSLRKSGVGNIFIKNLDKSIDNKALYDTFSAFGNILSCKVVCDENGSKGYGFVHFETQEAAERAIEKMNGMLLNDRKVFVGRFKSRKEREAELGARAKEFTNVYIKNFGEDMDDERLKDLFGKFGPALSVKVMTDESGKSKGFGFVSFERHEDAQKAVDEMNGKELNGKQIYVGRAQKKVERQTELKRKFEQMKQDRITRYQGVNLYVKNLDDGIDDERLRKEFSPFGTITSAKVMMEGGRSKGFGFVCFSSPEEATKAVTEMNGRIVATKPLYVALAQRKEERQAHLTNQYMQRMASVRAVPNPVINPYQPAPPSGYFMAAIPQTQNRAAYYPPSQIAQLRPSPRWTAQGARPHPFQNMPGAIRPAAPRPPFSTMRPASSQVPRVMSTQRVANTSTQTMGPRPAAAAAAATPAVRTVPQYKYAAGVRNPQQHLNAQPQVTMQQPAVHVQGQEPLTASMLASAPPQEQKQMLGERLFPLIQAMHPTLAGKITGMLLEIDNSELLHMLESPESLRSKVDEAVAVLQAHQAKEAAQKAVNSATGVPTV

[14] = biological target: DNA dC->dU-editing enzyme APOBEC-3A (Homo sapiens, UniProt P31941); assay: A3A deaminase inhibition for selectivity – biochemical, dose response (AID 504722); format: functional
Sequence of DNA dC->dU-editing enzyme APOBEC-3A (P31941 whole entry): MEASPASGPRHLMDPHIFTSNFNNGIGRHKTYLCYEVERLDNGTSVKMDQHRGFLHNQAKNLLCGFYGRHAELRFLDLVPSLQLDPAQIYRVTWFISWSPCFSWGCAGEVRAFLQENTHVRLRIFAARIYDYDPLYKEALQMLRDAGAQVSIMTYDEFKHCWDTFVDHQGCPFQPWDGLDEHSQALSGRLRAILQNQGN

[15] = biological target: T6, Mannose-6-phosphate isomerase; assay: MPI enzyme activity inhibition – biochemical, fluorescence intensity, coupled assay, primary screen (AID 1209)
[16] = biological target: Glucose-6-phosphate 1-dehydrogenase (Homo sapiens, UniProt P11413); assay: inhibition of Homo sapiens G6PD, dose series – biochemical, fluorescence, selectivity assay for P. falciparum G6PD inhibitor project, dose response (AID 504792); format: functional
Sequence of Glucose-6-phosphate 1-dehydrogenase (P11413 whole entry): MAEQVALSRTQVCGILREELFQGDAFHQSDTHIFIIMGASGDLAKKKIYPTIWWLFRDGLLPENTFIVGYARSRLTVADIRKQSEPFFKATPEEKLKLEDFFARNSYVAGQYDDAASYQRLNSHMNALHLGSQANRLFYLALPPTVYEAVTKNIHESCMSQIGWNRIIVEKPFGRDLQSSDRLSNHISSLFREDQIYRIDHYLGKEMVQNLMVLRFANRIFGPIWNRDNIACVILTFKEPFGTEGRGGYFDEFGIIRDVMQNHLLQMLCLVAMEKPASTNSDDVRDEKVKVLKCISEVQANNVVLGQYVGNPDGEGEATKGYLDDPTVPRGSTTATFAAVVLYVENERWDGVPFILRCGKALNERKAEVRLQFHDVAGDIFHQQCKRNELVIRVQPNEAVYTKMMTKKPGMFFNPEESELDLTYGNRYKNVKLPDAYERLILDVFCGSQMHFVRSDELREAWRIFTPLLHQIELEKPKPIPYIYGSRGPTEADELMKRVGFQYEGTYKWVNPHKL

[17] = biological target: T6, Mannose-6-phosphate isomerase; assay: MPI inhibition at elevated mannose 6-phosphate – biochemical, fluorescence intensity, high mannose 6-phosphate, primary screen (AID 1220)
Large T antigen = Large T antigen (Simian virus 40, UniProt P03070); format: functional, Betapolyomavirus macacae;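 also: Confirmatory-stage PubChem screen for compounds that inhibit SV40 T antigen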
Sequence of Large T antigen (P03070 whole entry): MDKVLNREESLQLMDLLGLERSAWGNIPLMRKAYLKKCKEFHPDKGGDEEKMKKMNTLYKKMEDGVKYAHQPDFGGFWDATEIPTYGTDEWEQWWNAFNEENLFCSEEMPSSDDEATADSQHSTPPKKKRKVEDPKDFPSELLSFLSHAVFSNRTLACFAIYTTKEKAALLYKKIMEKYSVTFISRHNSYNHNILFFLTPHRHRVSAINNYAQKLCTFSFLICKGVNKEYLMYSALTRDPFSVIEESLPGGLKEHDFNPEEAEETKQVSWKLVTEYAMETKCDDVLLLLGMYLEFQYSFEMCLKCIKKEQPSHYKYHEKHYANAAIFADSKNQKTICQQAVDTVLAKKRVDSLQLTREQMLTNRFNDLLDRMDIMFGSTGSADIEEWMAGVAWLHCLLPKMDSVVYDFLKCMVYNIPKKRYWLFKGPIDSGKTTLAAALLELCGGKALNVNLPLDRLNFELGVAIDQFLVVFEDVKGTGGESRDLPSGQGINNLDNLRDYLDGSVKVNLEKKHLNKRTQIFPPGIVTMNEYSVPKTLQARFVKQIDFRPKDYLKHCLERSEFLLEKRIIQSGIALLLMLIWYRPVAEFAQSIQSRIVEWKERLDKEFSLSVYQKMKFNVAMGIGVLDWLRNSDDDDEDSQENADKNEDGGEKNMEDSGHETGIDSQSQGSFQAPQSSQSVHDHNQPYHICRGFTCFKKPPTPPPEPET

[18] = biological target: DNA dC->dU-editing enzyme APOBEC-3G (Homo sapiens, UniProt Q9HC16); assay: Dose Response confirmation of small molecule APOBEC3G DNA Deaminase Inhibitors via a fluorescence-based single-stranded DNA deaminase assay. [Related pubchem assays (depositor defined):AID493012, AID493028]; format: functional
Sequence of DNA dC->dU-editing enzyme APOBEC-3G (Q9HC16 whole entry): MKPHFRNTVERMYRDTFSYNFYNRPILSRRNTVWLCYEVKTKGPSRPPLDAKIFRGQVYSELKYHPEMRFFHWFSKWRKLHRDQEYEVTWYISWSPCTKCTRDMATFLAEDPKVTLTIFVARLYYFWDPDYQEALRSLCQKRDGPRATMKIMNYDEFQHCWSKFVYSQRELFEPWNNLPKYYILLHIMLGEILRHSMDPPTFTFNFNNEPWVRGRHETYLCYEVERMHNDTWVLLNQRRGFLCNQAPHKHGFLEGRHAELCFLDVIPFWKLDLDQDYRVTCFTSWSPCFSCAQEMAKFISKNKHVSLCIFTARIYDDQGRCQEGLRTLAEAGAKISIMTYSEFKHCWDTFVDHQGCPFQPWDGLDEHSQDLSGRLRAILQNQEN

Streptokinase A = biological target: T8, Streptokinase A (Streptococcus pyogenes serotype M1, UniProt P10520); assay: viability-normalized secreted streptokinase activity reduction – plasminogen activation absorbance, OD405, dose response (AID 1914); format: functional, Streptococcus pyogenes M1 GAS;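 also: secreted streptokinase activity via plasminogen activation per viability signal from cell pellet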
T8 sequence (P10520 whole entry): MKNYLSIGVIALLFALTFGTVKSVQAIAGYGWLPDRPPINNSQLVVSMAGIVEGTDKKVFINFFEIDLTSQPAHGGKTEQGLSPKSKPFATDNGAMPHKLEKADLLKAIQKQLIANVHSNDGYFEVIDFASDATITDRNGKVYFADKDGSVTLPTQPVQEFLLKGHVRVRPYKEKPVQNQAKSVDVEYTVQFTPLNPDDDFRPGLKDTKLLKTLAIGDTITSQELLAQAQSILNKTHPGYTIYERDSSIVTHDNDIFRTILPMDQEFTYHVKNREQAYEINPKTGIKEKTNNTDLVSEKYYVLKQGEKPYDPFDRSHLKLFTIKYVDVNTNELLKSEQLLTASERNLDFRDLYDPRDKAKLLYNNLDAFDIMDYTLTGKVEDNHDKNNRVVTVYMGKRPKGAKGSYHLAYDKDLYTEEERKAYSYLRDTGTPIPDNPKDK

[19] = system: Streptococcus sp. 'group A'; assay: Streptococcus pyogenes SK(-)GAS viability under kanamycin – luminescence, BacTiterGlo, confirmation, counter-screen for streptokinase expression inhibitor project, dose response (AID 1900); format: functional, organism-based
[20] = biological target: T7, Polyadenylate-binding protein 1; assay: MLLE domain peptide-binding blockers, IC50 – biochemical, fluorescence polarization, FITC-PAM2 peptide, dose response (AID 602259); format: functional; conditions: read-out: IC50_Mean

In the case of `CC1=NN(c2ccccc2)C(=O)/C1=C/c1cc2ccccc2[nH]1`, the AC50 [1] is reported as 19.2 µM (active), the “Absolute IC50 (XBP1)” value (X-box-binding protein 1) is reported as 10 µM and the EC50 (Protein RecA) is reported as 10.9 µM (active).

For `Cc1cc(NC(=O)c2ccc(N3C(=O)C4C5C=CC(C5)C4C3=O)cc2)no1` (configuration not stated), the IC50 [2] was > 100 µM (inactive).

For `O=C(CSc1nc(-c2cccs2)cc(C(F)(F)F)n1)NCc1ccccc1`, the IC50 [2] was > 100 µM (inactive).

With `CCCCCCCCCCCCCCCC[n+]1cccc2ccccc21` the AC50 [3] was 2.87 µM (active), the IC50 [4] was 8.86 µM (active) and the EC50 [5] was 0.17 µM (active). For the same compound, the IC50 [6] was > 66.6 µM (inactive), the IC50 [7] was 5.71 µM (active) and the IC50 [8] was 4.32 µM (active). The AC50 [9] was 3.67 µM (active) and the EC50 [10] was 0.295 µM (active).

For `O=c1c2ccc(F)cc2sn1-c1cc(Cl)cc(Cl)c1`, the IC50 [11] was > 100 µM (inactive), the IC50 (Phosphomannomutase 2) was > 100 µM (inactive) and the IC50 [12] was > 50 µM (inactive).

For `O=C(Cn1sc2ccccc2c1=O)NC12CC3CC(CC(C3)C1)C2`, the EC50 (Streptococcus) was 7.2 µM (active), the IC50 [13] was > 66 µM (inactive) and the IC50 [14] was > 100 µM (inactive). The IC50 [15] was > 50 µM (not active), the IC50 [16] was 13.5 µM (active) and the IC50 (Phosphomannomutase 2) was > 100 µM (inactive). The EC50 [5] was 22.4 µM (active), the IC50 [7] was > 64 µM (inactive) and the IC50 [17] was > 50 µM (not active). The IC50 (Large T antigen) was 14 µM (active), the IC50 [18] was 6.94 µM (active) and the EC50 (Streptokinase A) was > 150 µM (not active). For the same compound, the IC50 [12] was > 50 µM (inactive), the EC50 [19] was 0.637 µM (active) and the IC50 [20] was > 66 µM (inactive). For the same compound, the EC50 [10] was 30.2 µM (active).
